Test results published in publication PMC9572860, “Antiprotozoal Activity of Azabicyclo-Nonanes Linked to Tetrazole or Sulfonamide Cores” (Molecules, 2022).
Read-outs that look alike come from different tables or passages of the source.

Tests used:
[1] = tested on: T. b. rhodesiense STIB 900; assay: In vitro microplate resazurin assay against T. brucei rhodesiense; assay type: cell-based, Trypanosoma brucei rhodesiense; conditions: for S.I. = IC50 (Cyt.)/IC50 (T.b.r.): L-6 cytotoxicity over T.b.r.; for IC50: Trypanosoma brucei, STIB 900 bloodstream forms, average of four determinations, read-out: T. Brucei Rhodesiense IC50
Experimental: (§1) Compounds were tested for their activities against strains of P. falciparum and T. b. rhodesiense via microplate assays. Their cytotoxicity was determined with rat skeletal myoblasts (L-6 cells). Chloroquine and melarsoprol served as standards (Table 1).
Minimum essential medium (50 µL) supplemented with 25 mM HEPES, 1 g/L additional glucose, 1% MEM nonessential amino acids (100×), 0.2 mM 2-mercaptoethanol, 1 mM Na-pyruvate and 15% heat inactivated horse serum was added to each well of a 96-well microtiter plate. Serial drug dilutions of 11 three-fold dilution steps covering a range from 100 to 0.002 μg/mL were prepared. Then, 4 × 10^3 bloodstream forms of T. b. rhodesiense STIB 900 in 50 µL was added to each well and the plate incubated at 37 °C under a 5% CO2 atmosphere for 70 h. Ten microliters of resazurin solution (resazurin, 12.5 mg in 100 mL double-distilled water) was then added to each well and incubation continued for an additional 2–4 h. The plates were then read with a Spectramax Gemini XS microplate fluorometer (Molecular Devices Cooperation, Sunnyvale, CA, USA) using an excitation wavelength of 536 nm and an emission wavelength of 588 nm. Data were analyzed with the graphic program Softmax Pro (Molecular Devices Cooperation, Sunnyvale, CA, USA), which calculated IC50 values by linear regression and 4-parameter logistic regression from the sigmoidal dose inhibition curves. Melarsoprol (Arsobal Sanofi-Aventis, received from WHO) was used as control.

P. falciparum K1 [2] = assay: In vitro microplate 3H-hypoxanthine incorporation assay against P. falciparum K1; assay type: cell-based, Plasmodium falciparum; conditions: for S.I. = IC50 (Cyt.)/IC50 (P.f. K1): L-6 cytotoxicity over P.f. K1; for IC50: Plasmodium falciparum
Experimental: as §1
(§2) In vitro activity against erythrocytic stages of P. falciparum was determined using a ^3H-hypoxanthine incorporation assay, using the drug-sensitive NF54 strain [21] or the chloroquine- and pyrimethamine-resistant K1 strain [22]. Compounds were dissolved in DMSO at 10 mg/mL and added to parasite cultures incubated in RPMI 1640 medium without hypoxanthine, supplemented with HEPES (5.94 g/L), NaHCO3 (2.1 g/L), neomycin (100 U/mL), Albumax (5 g/L) and washed human red cells A+ at 2.5% hematocrit (0.3% parasitemia). Serial drug dilutions of 11 three-fold dilution steps covering a range from 100 to 0.002 µg/mL were prepared. The 96-well plates were incubated in a humidified atmosphere at 37 °C; 4% CO2, 3% O2, 93% N2. After 48 h, 0.05 mL of ^3H-hypoxanthine (=0.5 µCi) was added to each well of the plate. The plates were incubated for an additional 24 h under the same conditions. The plates were then harvested with a Betaplate cell harvester (Wallac, Zurich, Switzerland). The red blood cells were transferred onto a glass fiber filter and washed with distilled water. The dried filters were inserted into a plastic foil with 10 mL of scintillation fluid and counted in a Betaplate liquid scintillation counter (Wallac, Zurich, Switzerland). IC50 values were calculated from sigmoidal inhibition curves by linear regression using Microsoft Excel. Chloroquine (Sigma C6628) was used as control.

[3] = In vitro cytotoxicity with L-6 cells; assay type: cell-based, rat
Experimental: as §1
(§3) Assays were performed in 96-well microtiter plates, each well containing 0.1 mL of RPMI 1640 medium supplemented with 1% L-glutamine (200 mM) and 10% fetal bovine serum and 4000 L-6 cells (a primary cell line derived from rat skeletal myoblasts, ATCC CRL-1458™). Serial drug dilutions of 11 three-fold dilution steps covering a range from 100 to 0.002 μg/mL were prepared. After 70 h of incubation, the plates were inspected under an inverted microscope to assure the growth of the controls and sterile conditions. Then, 0.01 mL resazurin solution (resazurin, 12.5 mg in 100 ml double-distilled water) was added to each well and the plates incubated for another 2 h. The plates were read with a Spectramax Gemini XS microplate fluorometer (Molecular Devices Cooperation, Sunnyvale, CA, USA) using an excitation wavelength of 536 nm and an emission wavelength of 588 nm. The IC50 values were calculated by linear regression from the sigmoidal dose inhibition curves using SoftmaxPro software (Molecular Devices Cooperation, Sunnyvale, CA, USA). Podophyllotoxin (Sigma P4405) was used as control.

P. falciparum NF54 = assay: In vitro microplate 3H-hypoxanthine incorporation assay against P. falciparum NF54; assay type: cell-based, Plasmodium falciparum
Experimental: as §1, §2

L-6 cells [4] = tested on: L-6 cells; set-up: method as in doi:10.1007/s00706-007-0634-1; conditions: rat skeletal myoblasts; read-out: Cytotox. L-6 Cells IC50; cited from earlier work
P. falciparum K1 [5] = tested on: P. falciparum K1; set-up: method as in doi:10.1007/s00706-007-0634-1; conditions: cited from earlier work; for IC50: K1 strain resistant to chloroquine and pyrimethamine; for S.I. = IC50 (Cyt.)/IC50 (P.f. K1): L-6 cytotoxicity over P.f. K1
[6] = tested on: T. b. rhodesiense STIB 900; set-up: method as in doi:10.1007/s00706-007-0634-1; conditions: cited from earlier work; for S.I. = IC50 (Cyt.)/IC50 (T.b.r.): L-6 cytotoxicity over T.b.r.; for IC50: read-out: T. Brucei Rhodesiense IC50
L-6 cells [7] = assay: In vitro cytotoxicity with L-6 cells; assay type: cell-based, rat; conditions: rat skeletal myoblasts; average of four determinations; read-out: Cytotox. L-6 Cells IC50
Experimental: as §1, §3

[8] = K1 strain resistant to chloroquine and pyrimethamine, average of four determinations, read-out: P. Falciparum K1 IC50

Q: What does the source list for `NCCN1CCC2(N3CCCC3)C[C@H](c3ccccc3)C1[C@@H](c1ccccc1)C2` (racemic) [Compound 8, rac-(7R,8R)-2-[7,8-Diphenyl-5-(pyrrolidin-1-yl)-2-azabicyclo[3.2.2]nonan-2-yl]ethan-1-amine]?
A: S.I. = IC50 (Cyt.)/IC50 (T.b.r.) [1]: 22.8; IC50 [1]: 1130 nM; S.I. = IC50 (Cyt.)/IC50 (P.f. K1) (P. falciparum K1 [2]): 47.8; IC50 (P. falciparum K1 [2]; [8]): 540 nM; IC50 at 72 h ([3]; rat): 25800 nM

Q: What does the source list for `NCCN1CC2[C@H](c3ccccc3)CC(N3CCCC3)(C[C@H]2c2ccccc2)C1` (racemic) [Compound 9, rac-(6R,9R)-2-[6,9-Diphenyl-1-(pyrrolidin-1-yl)-3-azabicyclo[3.2.2]nonan-3-yl]ethan-1-amine]?
A: S.I. = IC50 (Cyt.)/IC50 (T.b.r.) [1]: 21.7; IC50 [1]: 420 nM; S.I. = IC50 (Cyt.)/IC50 (P.f. K1) (P. falciparum K1 [2]): 14.5; IC50 (P. falciparum K1 [2]; [8]): 630 nM; IC50 at 72 h ([3]; rat): 9120 nM

Q: With `CCN(CC)CCCC(C)Nc1ccnc2cc(Cl)ccc12` (centres unmarked) [CQ, chloroquine, reference compound] as the compound, how does the “S.I. = IC50 (Cyt.)/IC50 (P.f. NF54)” value (P. falciparum NF54; L-6 cytotoxicity over P.f. NF54) read?
A: 23308

Q: What about the IC50 (P. falciparum NF54; Plasmodium falciparum, NF54, read-out: P. Falciparum NF54 IC50) of the same compound?
A: 3.9 nM

Q: And the “S.I. = IC50 (Cyt.)/IC50 (P.f. K1)” value (P. falciparum K1 [2])?
A: 606

Q: And the IC50 (P. falciparum K1 [2]; K1, read-out: P. Falciparum K1 IC50)?
A: 150 nM

Q: What about the IC50 at 72 h ([3]; rat skeletal myoblasts, average of four determinations, read-out: Cytotox. L-6 Cells IC50) of the same compound?
A: 90900 nM

Q: With `Cc1ccc(S(=O)(=O)N2CCC3(N4CCCCC4)CC(c4ccccc4)C2C(c2ccccc2)C3)cc1` (centres unmarked) [Compound 16] as the compound, how does the IC50 (L-6 cells [4]) read?
A: 10500 nM

Q: What about the IC50 (P. falciparum K1 [5]) of the same compound?
A: 1260 nM

Q: And the “S.I. = IC50 (Cyt.)/IC50 (P.f. K1)” value (P. falciparum K1 [5])?
A: 8.33

Q: And the “S.I. = IC50 (Cyt.)/IC50 (T.b.r.)” value [6]?
A: 3.96

Q: What about the IC50 [6] of the same compound?
A: 2650 nM

Q: For `Cc1ccc(S(=O)(=O)N2CCC3(N4CCCC4)CC(c4ccccc4)C2C(c2ccccc2)C3)cc1` (centres unmarked) [Compound 17], which IC50 (L-6 cells [4]) is on record?
A: 9420 nM

Q: And the IC50 (P. falciparum K1 [5])?
A: 1300 nM

Q: And the “S.I. = IC50 (Cyt.)/IC50 (P.f. K1)” value (P. falciparum K1 [5])?
A: 7.25

Q: What about the “S.I. = IC50 (Cyt.)/IC50 (T.b.r.)” value [6] of the same compound?
A: 7.48

Q: And the IC50 [6]?
A: 1260 nM

Q: Which IC50 (L-6 cells [7]) does the source give for `COc1cc([C@@H]2c3cc4c(cc3[C@H](O)[C@H]3COC(=O)[C@H]23)OCO4)cc(OC)c1OC` [POD, podophyllotoxin, reference compound] here?
A: 12 nM
